Values quoted from earlier work in US20140302138A1, “EXTENDED RELEASE PHARMACEUTICAL COMPOSITIONS CONTAINING CARBAMAZEPINE” (priority 2011, published 2014).

solubility in acetone (acetone): soluble | solubility in alcohol (alcohol): soluble | solubility in water (water): practically insoluble
Structure (SMILES): NC(=O)N1c2ccccc2C=Cc2ccccc21 [Carbamazepine, 5H-dibenzo[b,f]azepine-5-carboxamide]
